These results are taken from US20030013905A1, “Salts of cis-4-cyano-4[3(cyclopentyloxy)-4-methoxyphenyl]cyclohexane-1-carboxylic acid” (priority 2002, published 2003).

This data set can be described thus: Water uptake on exposure to air (Karl Fisher water content). Format: physicochemical. To be noted: recrystallized sodium salt 1(b), exposed to air at room temperature for 1 week; 2.9% before exposure; said to indicate fairly high hydroscopic nature.

SMILES strings stand for the structures. Structures can show the parent of a compound that is named as a salt.

With `COc1ccc(C2(C#N)CCC(C(=O)O)CC2)cc1OC1CCCC1` (stereo not drawn) [Example 1, cis-4-cyano-4-[3-(cyclopentyloxy)-4-methoxyphenyl]cyclohexane-1-carboxylic acid sodium salt], the “water content on Karl Fisher after exposure to air” value came to 22.9%.
